{"source": "paper PMC12472352", "about": "“The Activation of Cytochrome P450 2C9 Is Facilitated by the Coenzyme Forms of Vitamin B2” (Molecules, 2025)", "key": {"[1]": {"biological_target": "T1, cytochrome P450 2C9 (CYP2C9) (Homo sapiens, UniProt P11712)", "T1 sequence (P11712 whole entry)": "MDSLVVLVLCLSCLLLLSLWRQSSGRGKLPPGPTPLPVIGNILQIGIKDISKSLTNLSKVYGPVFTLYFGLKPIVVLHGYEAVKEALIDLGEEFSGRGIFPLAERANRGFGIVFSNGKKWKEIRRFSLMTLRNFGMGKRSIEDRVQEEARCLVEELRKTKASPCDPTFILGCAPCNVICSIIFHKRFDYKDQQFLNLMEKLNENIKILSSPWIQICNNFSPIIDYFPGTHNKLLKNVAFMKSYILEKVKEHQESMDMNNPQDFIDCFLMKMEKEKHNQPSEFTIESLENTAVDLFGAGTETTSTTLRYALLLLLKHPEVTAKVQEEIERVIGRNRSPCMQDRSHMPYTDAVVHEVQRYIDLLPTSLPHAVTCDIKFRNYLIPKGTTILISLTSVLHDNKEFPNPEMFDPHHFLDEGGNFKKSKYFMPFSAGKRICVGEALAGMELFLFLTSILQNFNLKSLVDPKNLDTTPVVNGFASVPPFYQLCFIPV", "test": "electrochemical diclofenac […]'-hydroxylation by purified CYP2C9 with FMN ([…]); relative activity […]", "assay_type": "biochemical"}, "[2]": {"biological_target": "T1, cytochrome P450 2C9 (CYP2C9)", "test": "UV-vis absorption spectral titration (Soret peak) of purified recombinant CYP2C9; also electrochemical activation", "assay_type": "binding"}, "[3]": {"biological_target": "T1, cytochrome P450 2C9 (CYP2C9)", "test": "amperometric titration (KM) on CYP2C9 + FMN electrode; […]'-hydroxydiclofenac formation by square-wave voltammetry", "assay_type": "biochemical"}}, "data": [{"smiles": "Cc1cc2nc3c(=O)[nH]c(=O)nc-3n(C[C@H](O)[C@H](O)[C@H](O)COP(=O)(O)O)c2cc1C", "note": "[FMN]", "values": [{"measurement": "Relative Activity, %", "setting": "[1]", "value": "113 ± 6", "unit": "%"}]}, {"smiles": "Cc1cc2nc3c(=O)[nH]c(=O)nc-3n(C[C@H](O)[C@H](O)[C@H](O)COP(=O)(O)OP(=O)(O)OC[C@H]3O[C@@H](n4cnc5c(N)ncnc54)[C@H](O)[C@@H]3O)c2cc1C", "note": "[FAD]", "values": [{"measurement": "Kd", "setting": "[2]", "value": "174 ± 52", "unit": "µM"}]}, {"smiles": "O=C(O)Cc1ccccc1Nc1c(Cl)cccc1Cl", "note": "[diclofenac, 2-[2-(2,6-dichloroanilino)-phenyl]acetic acid]", "values": [{"measurement": "KM, M", "setting": "[3]", "value": "(5.49 ± 0.52) ×10^−5 M"}]}]}
